Results on 17 compounds are retold here after US8648085B2, “1, 5-dihydro-pyrazolo (3, 4-D) pyrimidin-4-one derivatives and their use as PDE9A mudulators for the treatment of CNS disorders” (Boehringer Ingelheim International GmbH, priority 2007, dated 2014).

The target of test [1] is T1, PDE9A (Homo sapiens, UniProt O76083). The note with it: concentrations of up to 100 [mu]M; cited from earlier work.
The target of test [2] is T2, Murine PDE9A (Mus musculus, UniProt O70628).
T2 sequence (O70628 1-534): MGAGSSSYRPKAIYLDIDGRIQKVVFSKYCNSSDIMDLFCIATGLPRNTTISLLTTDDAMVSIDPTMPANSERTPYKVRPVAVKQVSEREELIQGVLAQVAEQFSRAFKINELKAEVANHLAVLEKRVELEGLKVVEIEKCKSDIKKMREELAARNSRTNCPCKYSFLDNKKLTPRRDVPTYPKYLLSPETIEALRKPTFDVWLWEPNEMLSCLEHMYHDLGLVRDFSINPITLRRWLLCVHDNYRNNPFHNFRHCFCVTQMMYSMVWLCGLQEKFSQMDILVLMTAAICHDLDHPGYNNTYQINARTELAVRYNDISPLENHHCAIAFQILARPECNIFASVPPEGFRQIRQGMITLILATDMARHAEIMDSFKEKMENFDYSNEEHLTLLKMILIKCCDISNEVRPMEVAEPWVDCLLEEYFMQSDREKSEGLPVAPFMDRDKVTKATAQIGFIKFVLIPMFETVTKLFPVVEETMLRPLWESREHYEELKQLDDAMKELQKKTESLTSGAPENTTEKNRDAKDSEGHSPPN
The note with it: concentrations below 200 [mu]M; cited from earlier work.

Test [3] concerns the target T3, PDE1C (Homo sapiens, UniProt Q14123).
T3 construct: made in house; host or cells: SF9 insect cells (crude lysate used as enzyme source)
Nature of the test: PDE enzymatic activity assay (SPA), PDE1C, cAMP as substrate. It is filed as biochemical. The note with it: ratio IC50 PDE1C / IC50 PDE9A; for illustrative purposes. On the procedure:
(§1) The PDE enzymatic activity assays were run as SPA, in general according to the protocol of the manufacturer (Amersham Biosciences, product number: TRKQ 7100). As enzyme source, lysate (PBS with 1% Triton X-100 supplemented with protease inhibitors, cell debris removed by centrifugation at 13.000 rpm for 30 min) of SF 9 cell expressing the human PDE of interest was used. The total protein amount included in the assay varied upon infection and production efficacy of the SF9 cells and lay in the range of […].
(§2) In general, the assay conditions were as follows: • total assay volume: 40 μl • protein amount: 0.1-50 ng • substrate concentration (cGMP or cAMP): 20 nM; ˜1 mCi/l • incubation time: 60 min at room temperature • final DMSO concentration: 1%
(§3) The assays were run in 384-well format. The test reagents as well as the enzyme and the substrate were diluted in assay buffer. The assay buffer contained 50 mM Tris, 8.3 mM MgCl2, 1.7 mM EGTA, 0.1% BSA, 0.05% Tween 20; the pH of assay buffer was adjusted to 7.5. In case activity of PDE1C was analysed, 50 nM Calmodulin and 3 mM CaCl2 were included in the assay buffer. In case PDE9 activity was analyzed, the reaction was stopped by applying a PDE9 specific inhibitor (e.g. compounds according to WO2004/099210). PDE1C was analysed with cAMP as substrate, and PDE9 was analyzed with cGMP as substrate.
(§4) IC50 can be calculated in a conventional way, eventually with the help of GraphPadPrism or other suited software setting the positive control as 100 and the negative control as 0. For calculation of IC50 usually 8 dilutions of the test compound ([…]) are to be selected and tested following the aforementioned protocol.

Test [4] concerns the target T1, PDE9A. Nature of the test: PDE enzymatic activity assay (SPA), PDE9A. The format is biochemical. The note with it: cGMP substrate, for illustrative purposes; for inhibition at 10 µM: 10 micromolar; for IC50: given as ranges. Details: made in house; host or cells: SF9 insect cells (crude lysate used as enzyme source). On the procedure:
as §1, §2, §3
Calculation of % Inhibition:
The activity of the positive control (minus the negative control=background) is set to 100% and activity in the presence of test compound is expressed relative to these 100%.
Within this setting, an inhibition above 100% might be possible due to the nature of the variation of the positive control within the assay, however, in this case the reported % inhibition had been adjusted to 100%.
as §4

The inhibition is the drop in the measured response relative to a control, in per cent. As a reminder, the IC50 is the midpoint of a concentration-inhibition curve. A higher IC50 goes with lower potency.

Some results are limits rather than exact numbers.

T1 sequence (O76083 whole entry): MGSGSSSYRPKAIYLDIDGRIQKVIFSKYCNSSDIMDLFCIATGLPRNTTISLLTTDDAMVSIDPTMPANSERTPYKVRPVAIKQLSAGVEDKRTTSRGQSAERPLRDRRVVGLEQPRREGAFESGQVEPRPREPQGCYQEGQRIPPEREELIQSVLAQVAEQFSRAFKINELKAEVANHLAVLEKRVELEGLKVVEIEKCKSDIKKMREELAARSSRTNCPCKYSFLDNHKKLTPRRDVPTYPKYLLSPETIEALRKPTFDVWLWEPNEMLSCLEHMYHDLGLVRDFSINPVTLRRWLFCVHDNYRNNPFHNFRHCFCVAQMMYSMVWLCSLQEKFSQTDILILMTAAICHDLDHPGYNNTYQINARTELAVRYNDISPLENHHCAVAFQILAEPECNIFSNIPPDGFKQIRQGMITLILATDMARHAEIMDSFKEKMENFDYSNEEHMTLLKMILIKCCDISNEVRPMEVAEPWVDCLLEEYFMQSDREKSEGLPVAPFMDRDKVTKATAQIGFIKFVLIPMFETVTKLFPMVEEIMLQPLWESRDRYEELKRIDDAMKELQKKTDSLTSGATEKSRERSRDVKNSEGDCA

Regarding `CC(C)Cn1c(=O)n(C)c(=O)c2[nH]cnc21` [IBMX], in test [1], the “inhibition on the isolated enzyme (human PDE9A)” value (“inhibition … (human PDE9A)” for short) is “no inhibition”. The “inhibition of murine PDE9A” value in test [2] is on record as “not inhibited”.
With `OCCN(CCO)c1nc(N2CCCCC2)c2nc(N(CCO)CCO)nc(N3CCCCC3)c2n1` [dipyridamole], the “inhibition … (human PDE9A)” value in test [1] is “no inhibition”.
In the case of `CCOC(=O)C1=C[C@]2(CC)CCCN3CCc4c(n1c1ccccc41)[C@@H]32` [vinpocetine], the “inhibition … (human PDE9A)” value in test [1] is given as “no inhibition”.
In the case of `CCOc1ccc(Cl)c(-n2ncc3c(=O)[nH]c(Cc4ccccc4OC(F)(F)F)nc32)c1` [Example 20, 1-(2-Chloro-5-ethoxy-phenyl)-6-(2-trifluoromethoxy-benzyl)-1,5-dihydro-pyrazolo[3,4-d]pyrimidin-4-one], the “Selectivity = IC50 PDE 1C/IC50 PDE9A (both nanomolar)” value (“Selectivity = IC50 PDE 1C/IC50 PDE9A” for short) in test [3] was determined as 4. Also, in test [4], the inhibition at 10 µM was 87% and the IC50 was in the range of 10 to 500 nM.
For `CN(C)C(=O)c1ccc(Cl)c(-n2ncc3c(=O)[nH]c(Cc4ccccc4OC(F)(F)F)nc32)c1` [Example 36, 1-[2-Chloro-5-(dimethylamino-carbonyl)-phenyl]-6-(2-trifluoromethoxy-benzyl)-1,5-dihydro-pyrazolo[3,4-d]pyrimidin-4-one], the “Selectivity = IC50 PDE 1C/IC50 PDE9A” value in test [3] is reported as 54. Further, in test [4], the inhibition at 10 µM was 98% and the IC50 lay within 10 to 500 nM.
Take `CC(=O)Nc1ccc(-c2c[nH]c(=O)cn2)cc1` [SKF94120]: the “inhibition … (human PDE9A)” value in test [1] was “no inhibition”.
Turning to `O=c1[nH]c(Cc2ccccc2OC(F)(F)F)nc2c1cnn2-c1cccc(F)c1` [Example 26, 1-(3-Fluoro-phenyl)-6-(2-trifluoromethoxy-benzyl)-1,5-dihydro-pyrazolo[3,4-d]pyrimidin-4-one], the “Selectivity = IC50 PDE 1C/IC50 PDE9A” value in test [3] came out at 24. For the same compound, in test [4], the inhibition at 10 µM was determined as 51% and the IC50 is above 500 nM.
For `O=c1[nH]c(Cc2ccccc2OC(F)(F)F)nc2c1cnn2-c1cccc(F)c1F` [Example 30-4, 1-(2,3-Difluoro-phenyl)-6-(2-trifluoromethoxy-benzyl)-1,5-dihydro-pyrazolo[3,4-d]pyrimidin-4-one], in test [3], the “Selectivity = IC50 PDE 1C/IC50 PDE9A” value worked out at 3. Moreover, in test [4], the inhibition at 10 µM was 99% and the IC50 lay in the range of 10 to 500 nM.
Regarding `Cc1cc(-n2ncc3c(=O)[nH]c(Cc4ccccc4OC(F)(F)F)nc32)c(Cl)cc1F` [Example 23, 1-(2-Chloro-4-fluoro-5-methyl-phenyl)-6-(2-trifluoromethoxy-benzyl)-1,5-dihydro-pyrazolo[3,4-d]pyrimidin-4-one], the “Selectivity = IC50 PDE 1C/IC50 PDE9A” value in test [3] amounted to 46. Moreover, in test [4], the inhibition at 10 µM turned out to be 85% and the IC50 is above 500 nM.
`O=c1[nH]c(Cc2ccccc2OC(F)(F)F)nc2c1cnn2-c1cc(Cl)ccc1Br` [Example 8, 1-(2-Bromo-5-chloro-phenyl)-6-(2-trifluoromethoxy-benzyl)-1,5-dihydro-pyrazolo[3,4-d]pyrimidin-4-one]: the “Selectivity = IC50 PDE 1C/IC50 PDE9A” value in test [3] worked out at 21. In test [4], the inhibition at 10 µM came to 93% and the IC50 lay within 10 to 500 nM.
Take `Cc1ccc(Br)c(-n2ncc3c(=O)[nH]c(Cc4ccccc4OC(F)(F)F)nc32)c1` [Example 10, 1-(2-Bromo-5-methyl-phenyl)-6-(2-trifluoromethoxy-benzyl)-1,5-dihydro-pyrazolo[3,4-d]pyrimidin-4-one]: in test [3], the “Selectivity = IC50 PDE 1C/IC50 PDE9A” value was found to be 7. Besides, in test [4], the inhibition at 10 µM came to 88% and the IC50 was above 500 nM.
Turning to `O=c1[nH]c(Cc2ccccc2OC(F)(F)F)nc2c1cnn2-c1cccnc1` [Example 33, 6-(2-Trifluoromethoxy-benzyl)-1-(pyridin-3-yl)-1,5-dihydro-pyrazolo[3,4-d]pyrimidin-4-one], in test [3], the “Selectivity = IC50 PDE 1C/IC50 PDE9A” value was 4. In test [4], the inhibition at 10 µM stood at 89% and the IC50 lay within 10 to 500 nM.
As for `COc1ccc(C2CNC(=O)C2)cc1OC1CCCC1` (stereo not drawn) [rolipram], in test [1], the “inhibition … (human PDE9A)” value is listed as “no inhibition”.
For the compound `O=C(O)c1cccc(-n2ncc3c(=O)[nH]c(Cc4ccccc4OC(F)(F)F)nc32)c1` [Example 30-1, 1-(3-Carbox-phenyl)-6-(2-trifluoromethoxy-benzyl)-1,5-dihydro-pyrazolo[3,4-d]pyrimidin-4-one], in test [3], the “Selectivity = IC50 PDE 1C/IC50 PDE9A” value was found to be 55. For the same compound, in test [4], the inhibition at 10 µM was found to be 101% and the IC50 lay in the range of 10 to 500 nM.
`O=c1[nH]c(Cc2ccccc2OC(F)(F)F)nc2c1cnn2-c1ccc(F)cc1` [Example 11, 1-(4-Fluoro-phenyl)-6-(2-trifluoromethoxy-benzyl)-1,5-dihydro-pyrazolo[3,4-d]pyrimidin-4-one]: in test [3], the “Selectivity = IC50 PDE 1C/IC50 PDE9A” value came to 21. Besides, in test [4], the inhibition at 10 µM came out at 47% and the IC50 was above 500 nM.
Turning to `Cc1cccc(-n2ncc3c(=O)[nH]c(Cc4ccccc4OC(F)(F)F)nc32)c1C` [Example 19, 1-(2,3-Dimethyl-phenyl)-6-(2-trifluoromethoxy-benzyl)-1,5-dihydro-pyrazolo[3,4-d] pyrimidin-4-one], the “Selectivity = IC50 PDE 1C/IC50 PDE9A” value in test [3] came out at 5. Moreover, in test [4], the inhibition at 10 µM was determined as 74% and the IC50 is 10 to 500 nM.
As to `CC(=O)Nc1cccc(-n2ncc3c(=O)[nH]c(Cc4ccccc4OC(F)(F)F)nc32)c1` [Example 30-5, 1-(3-Acetamido-phenyl)-6-(2-trifluoromethoxy-benzyl)-1,5-dihydro-pyrazolo[3,4-d]pyrimidin-4-one], the “Selectivity = IC50 PDE 1C/IC50 PDE9A” value in test [3] is 26. Also, in test [4], the inhibition at 10 µM stood at 97% and the IC50 was 10 to 500 nM.
